Measured values taken from patent publication US20200247855A1, “THERAPY AND DIAGNOSTICS” (OXFORD UNIVERSITY INNOVATION LIMITED, priority 2017, published 2020).

Test system: human CCL5 together with CXCL8, CXCL1, CCL3 or CCL2
Experiment: Biolayer interferometry polyvalent binding (association with CCL5, then CCL5 plus second chemokine)
Conditions: BLI, wavelength shift in association 2
Source text: FIG. 10. Polyvalent binding of CC and CXC chemokines to two-warhead evasins. […] This was followed by association with CCL5+CXCL8 (light grey trace), or with CCL5+CXCL1 (dark grey trace) or CCL5+CCL3 (black trace) (association 2), and then dissociated in buffer (dissociation).
FIG. 11. Polyvalent binding of CC and CXC chemokines to two-warhead evasins. […] This was followed by association with CCL5+CXCL8 (light grey trace), or with CCL5+CXCL1 (dark grey trace) or CCL5+CCL2 (black trace) (association 2), and then dissociated in buffer (dissociation).
The ability of 2-warhead evasins to engage in polyvalent binding of CC and CXC chemokines was further determined.

human CCL5 together with CXCL8, CXCL1, CCL3 or CCL2, sequence (P13501 24-91): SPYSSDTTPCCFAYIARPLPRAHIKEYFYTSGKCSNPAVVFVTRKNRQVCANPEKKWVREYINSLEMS

**Q.** For “P1243:P1156: two-warhead evasin: P1243_AMBAM linked via GGGGS linker to P1156_IXORI”, which “Polyvalent (simultaneous) binding of CC and CXC chemokines” value is on record?
**A.** can associate simultaneously with CCL5 and either CXCL8 or CXCL1
